We go through 18 compounds from patent US20250114345A1, “COMPOUNDS AND COMPOSITIONS AS CBP/P300 DEGRADERS AND USES THEREOF” (Oncopia Therapeutics, Inc. d/b/a/ SK Life Science Labs, priority 2023, published 2025).

The target in this assay is T1, p300 (Homo sapiens, UniProt Q09472).
T1 construct: host or cells: A549 P300 HiBit cells
As to the kind of experiment: P300 degradation, HiBit technology in A549 P300 HiBit cells (2 h). The following applies: 2 hrs post treatment; for Dmax: A549, A549 P300 HiBit cells; for DC50: A549 P300 HiBit cells. The assay is classed as cell-based. In outline:
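A549 HiBiT knock-in cells seeded overnight at 37 °C, 5% CO2 in F-12K with 10% heat-inactivated FBS, then given serial dilutions of compound from 10 mM DMSO stocks. Lytic HiBiT detection reagent added for 10 min at room temperature; luminescence read. Potency and Dmax reported.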

T1 sequence (Q09472 whole entry): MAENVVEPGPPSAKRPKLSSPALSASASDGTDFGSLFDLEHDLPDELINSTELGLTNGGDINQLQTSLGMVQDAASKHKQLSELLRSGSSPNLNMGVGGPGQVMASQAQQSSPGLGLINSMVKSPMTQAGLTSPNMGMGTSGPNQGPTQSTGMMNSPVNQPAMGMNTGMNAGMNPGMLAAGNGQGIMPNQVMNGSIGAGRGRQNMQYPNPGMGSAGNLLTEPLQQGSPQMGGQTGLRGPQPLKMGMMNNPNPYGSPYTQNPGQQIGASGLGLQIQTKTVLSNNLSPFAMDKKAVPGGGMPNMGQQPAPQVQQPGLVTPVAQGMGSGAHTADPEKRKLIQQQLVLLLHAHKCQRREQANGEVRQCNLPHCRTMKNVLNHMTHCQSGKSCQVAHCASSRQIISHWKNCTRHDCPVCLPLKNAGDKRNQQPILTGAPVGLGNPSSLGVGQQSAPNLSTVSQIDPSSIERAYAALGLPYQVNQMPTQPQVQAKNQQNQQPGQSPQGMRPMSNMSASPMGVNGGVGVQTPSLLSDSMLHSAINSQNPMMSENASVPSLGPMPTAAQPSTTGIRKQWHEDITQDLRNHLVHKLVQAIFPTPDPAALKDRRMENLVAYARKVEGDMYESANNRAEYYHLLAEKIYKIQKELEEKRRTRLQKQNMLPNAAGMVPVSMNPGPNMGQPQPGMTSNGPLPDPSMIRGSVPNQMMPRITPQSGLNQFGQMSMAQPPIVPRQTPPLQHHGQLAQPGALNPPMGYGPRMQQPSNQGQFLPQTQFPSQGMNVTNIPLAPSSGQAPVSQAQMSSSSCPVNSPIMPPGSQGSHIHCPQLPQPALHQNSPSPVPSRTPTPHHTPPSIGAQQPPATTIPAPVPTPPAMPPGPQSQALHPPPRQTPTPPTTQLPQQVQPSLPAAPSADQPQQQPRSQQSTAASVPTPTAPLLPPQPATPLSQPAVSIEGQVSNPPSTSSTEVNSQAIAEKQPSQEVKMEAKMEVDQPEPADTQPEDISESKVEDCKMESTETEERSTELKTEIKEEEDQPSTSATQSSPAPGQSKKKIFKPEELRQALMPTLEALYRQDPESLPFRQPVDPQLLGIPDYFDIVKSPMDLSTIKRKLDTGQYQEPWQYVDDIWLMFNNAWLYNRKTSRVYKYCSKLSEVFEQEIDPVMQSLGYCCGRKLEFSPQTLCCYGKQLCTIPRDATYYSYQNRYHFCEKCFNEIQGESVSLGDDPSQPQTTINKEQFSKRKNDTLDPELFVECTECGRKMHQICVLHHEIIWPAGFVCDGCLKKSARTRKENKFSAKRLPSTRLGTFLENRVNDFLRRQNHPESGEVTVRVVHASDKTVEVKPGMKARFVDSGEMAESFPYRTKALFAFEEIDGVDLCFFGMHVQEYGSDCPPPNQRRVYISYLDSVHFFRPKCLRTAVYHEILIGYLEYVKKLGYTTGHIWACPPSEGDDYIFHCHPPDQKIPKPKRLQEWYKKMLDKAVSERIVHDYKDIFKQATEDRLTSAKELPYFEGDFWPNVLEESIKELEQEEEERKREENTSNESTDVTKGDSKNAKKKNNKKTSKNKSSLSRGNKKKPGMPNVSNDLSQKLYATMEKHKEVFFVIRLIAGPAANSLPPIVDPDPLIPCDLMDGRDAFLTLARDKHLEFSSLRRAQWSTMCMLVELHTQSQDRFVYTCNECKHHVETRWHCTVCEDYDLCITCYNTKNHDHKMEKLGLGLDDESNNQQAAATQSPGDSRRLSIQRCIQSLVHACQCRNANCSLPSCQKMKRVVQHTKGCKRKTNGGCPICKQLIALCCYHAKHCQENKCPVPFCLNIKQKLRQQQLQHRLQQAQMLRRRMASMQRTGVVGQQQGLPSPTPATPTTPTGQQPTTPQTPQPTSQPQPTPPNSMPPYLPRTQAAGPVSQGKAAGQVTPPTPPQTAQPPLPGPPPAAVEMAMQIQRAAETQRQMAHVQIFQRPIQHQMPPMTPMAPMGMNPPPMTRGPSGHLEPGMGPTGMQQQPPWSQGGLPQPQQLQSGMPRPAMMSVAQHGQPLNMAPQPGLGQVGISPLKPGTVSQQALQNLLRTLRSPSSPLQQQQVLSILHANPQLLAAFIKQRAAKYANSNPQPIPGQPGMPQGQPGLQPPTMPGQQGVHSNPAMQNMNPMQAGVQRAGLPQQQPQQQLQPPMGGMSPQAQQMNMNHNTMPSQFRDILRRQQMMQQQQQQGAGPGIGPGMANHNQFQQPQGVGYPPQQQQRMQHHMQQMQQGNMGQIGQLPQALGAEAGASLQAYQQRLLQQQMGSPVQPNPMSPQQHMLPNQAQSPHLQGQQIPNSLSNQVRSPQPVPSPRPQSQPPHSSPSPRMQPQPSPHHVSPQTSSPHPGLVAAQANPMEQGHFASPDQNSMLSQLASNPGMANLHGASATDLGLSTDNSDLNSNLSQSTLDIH

For `Cc1cc(-c2ncc3c(n2)OCCN3c2ccc3c(c2)n(C)c(=O)n3C)cnc1C(=O)NCC#Cc1ccc2occ(C34CC(C3)C(=O)NC4=O)c2c1` [Example A262, 5-(5-(1,3-dimethyl-2-oxo-2,3-dihydro-1H-benzo[d]imidazol-5-yl)-6,7-dihydro-5H-pyrimido[4,5-b] [1,4]oxazin-2-yl)-N-(3-(3-(2,4-dioxo-3-azabicyclo[3.1.1]heptan-1-yl)benzofuran-5-yl)prop-2-yn-1-yl)-3-methylpicolinamide], the Dmax was greater than 80% and the DC50 fell in the range of 10 to 99 nM.

Consider `Cc1cc(-c2ncc(N(C)c3ccc4c(c3)n(C)c(=O)n4C)cn2)cnc1C(=O)NCC#Cc1cc2c(C3CCC(=O)NC3=O)nccc2o1` (stereo not drawn) [Example A192, 5-(5-((1,3-dimethyl-2-oxo-2,3-dihydro-1H-benzo[d]imidazol-5-yl)(methyl)amino)pyrimidin-2-yl)-N-(3-(4-(2,6-dioxopiperidin-3-yl)furo[3,2-c]pyridin-2-yl)prop-2-yn-1-yl)-3-methylpicolinamide], for which the Dmax was greater than 80% and the 50% degradation concentration (DC50) is 1 to 9.9 nM.

As for `Cc1cc(-c2ncc(N(C)c3cc(C4CCOCC4)c4c(c3)n(C)c(=O)n4C)s2)cnc1C(=O)NCC#Cc1ccc2occ(C3CCC(=O)NC3=O)c2c1` (stereo not drawn) [Example A149, 5-(5-((1,3-dimethyl-2-oxo-7-(tetrahydro-2H-pyran-4-yl)-2,3-dihydro-1H-benzo[d]imidazol-5-yl)(methyl)amino)thiazol-2-yl)-N-(3-(3-(2,6-dioxopiperidin-3-yl)benzofuran-5-yl)prop-2-yn-1-yl)-3-methylpicolinamide], the Dmax was less than 20% and the DC50 is greater than 1000 nM.

For the compound `Cc1cc(-c2ncc3c(n2)OCCN3c2cc3c(c(N4CCOCC4)n2)n(C)c(=O)n3C)cnc1C(=O)NCC#Cc1ccc2occ(C3CCC(=O)NC3=O)c2c1` (stereo not drawn) [Example A91, 5-(5-(1,3-dimethyl-4-morpholino-2-oxo-2,3-dihydro-1H-imidazo[4,5-c]pyridin-6-yl)-6,7-dihydro-5H-pyrimido[4,5-b][1,4]oxazin-2-yl)-N-(3-(3-(2,6-dioxopiperidin-3-yl)benzofuran-5-yl)prop-2-yn-1-yl)-3-methylpicolinamide], the Dmax was less than 20% and the DC50 was in the range of 10 to 99 nM.

With `CC(C)c1cc(-c2cccc3cc(-c4ccc(C(=O)NCC#Cc5cnc6ccn(C7CCC(=O)NC7=O)c6c5)nc4)ncc23)cc2c1n(C)c(=O)n2C` (stereo not drawn) [Example A13, N-(3-(1-(2,6-Dioxopiperidin-3-yl)-1H-pyrrolo[3,2-b]pyridin-6-yl)prop-2-yn-1-yl)-5-(8-(7-isopropyl-1,3-dimethyl-2-oxo-2,3-dihydro-1H-benzo[d]imidazol-5-yl)isoquinolin-3-yl)picolinamide], the Dmax is greater than 80% and the DC50 lay in the range of 1 to 9.9 nM.

Consider `Cn1c(=O)n(C)c2cc(N3CCCc4nc(-c5ccc(C(=O)NCC#Cc6ccc7occ(C89CC(C8)C(=O)NC9=O)c7c6)nc5)ncc43)ccc21` [Example A215, 5-(5-(1,3-dimethyl-2-oxo-2,3-dihydro-1H-benzo[d]imidazol-5-yl)-5,6,7,8-tetrahydropyrido[3,2-d]pyrimidin-2-yl)-N-(3-(3-(2,4-dioxo-3-azabicyclo[3.1.1]heptan-1-yl)benzofuran-5-yl)prop-2-yn-1-yl)picolinamide], for which the greatest degradation seen (Dmax) lay in the range of 60 to 79% and the DC50 lay within 10 to 99 nM.

`Cc1nc(-c2cnc(N(C)c3cc(C4CCOCC4)c4c(c3)n(C)c(=O)n4C)cn2)cnc1C(=O)NCC#Cc1cc2c(C3CCC(=O)NC3=O)nccc2o1` (stereo not drawn) [Example A200, 5′-((1,3-dimethyl-2-oxo-7-(tetrahydro-2H-pyran-4-yl)-2,3-dihydro-1H-benzo [d]imidazol-5-yl) (methyl)amino)-N-(3-(4-(2,6-dioxo-piperidin-3-yl)furo[3,2-c]pyridin-2-yl)prop-2-yn-1-yl)-6-methyl-[2,2′-bipyrazine]-5-carboxamide] displayed a Dmax greater than 80% and a DC50 of 1 to 9.9 nM.

`Cc1cc(-n2ccc(N(C)c3cc(C(C)C)c4c(c3)n(C)c(=O)n4C)cc2=O)cnc1C(=O)NCC#Cc1cccc(NC2CCC(=O)NC2=O)c1` (stereo not drawn) [Example A42, N-(3-(3-((2,6-dioxopiperidin-3-yl)amino)phenyl)prop-2-yn-1-yl)-4-((7-isopropyl-1,3-dimethyl-2-oxo-2,3-dihydro-1H-benzo [d]imidazol-5-yl)(methyl)amino)-5′-methyl-2-oxo-2H-[1,3′-bipyridine]-6′-carboxamide] showed a Dmax greater than 80% and a DC50 of 1 to 9.9 nM.

`Cc1cc2c(N3CCCc4cc(-c5ccc(C(=O)NCC#Cc6ccc7occ(C8CCC(=O)NC8=O)c7c6)nc5)c(C(F)F)cc43)cccc2n(C)c1=O` (stereo not drawn) [Example B22, 5-(7-(difluoromethyl)-1′,3′-dimethyl-2′-oxo-1′,2′,3,4-tetrahydro-2H-[1,5′-biquinolin]-6-yl)-N-(3-(3-(2,6-dioxopiperidin-3-yl)benzofuran-5-yl)prop-2-yn-1-yl)picolinamide] displayed a Dmax greater than 80% and a DC50 of 1 to 9.9 nM.

Turning to `CC(C)c1cc(-c2cccc3cc(-c4ccc(C(=O)NCC#Cc5ccc6c(C(F)F)nn(C7CCC(=O)NC7=O)c6c5)nc4)ncc23)cc2c1n(C)c(=O)n2C` (stereo not drawn) [Example A31, N-(3-(3-(Difluoromethyl)-1-(2,6-dioxopiperidin-3-yl)-1H-indazol-6-yl)prop-2-yn-1-yl)-5-(8-(7-isopropyl-1,3-dimethyl-2-oxo-2,3-dihydro-1H-benzo[d]imidazol-5-yl)isoquinolin-3-yl)picolinamide], the Dmax was 20 to 39% and the DC50 fell in the range of 1 to 9.9 nM.

Compound `CC(C)c1cc(-c2cccc3cc(-c4ccc(C(=O)NCC#Cc5cc6c(C7CCC(=O)NC7=O)cn(C)c6cn5)nc4)ncc23)cc2c1n(C)c(=O)n2C` (stereo not drawn) [Example A232, N-(3-(3-(2,6-dioxo-piperidin-3-yl)-1-methyl-1H-pyrrolo [2,3-c]pyridin-5-yl)prop-2-yn-1-yl)-5-(8-(7-isopropyl-1,3-dimethyl-2-oxo-2,3-dihydro-1H-benzo[d]imidazol-5-yl)isoquinolin-3-yl)picolinamide] came in with a Dmax of 40 to 59% and a DC50 of 10 to 99 nM.

Compound `CC(C)c1cc(-c2cccc3cc(-c4ccc(C(=O)NCC#Cc5ccc6c(CN(C)C)nn(C7CCC(=O)NC7=O)c6c5)nc4)ncc23)cc2c1n(C)c(=O)n2C` (stereo not drawn) [Example A28, N-(3-(3-((Dimethylamino)methyl)-1-(2,6-dioxopiperidin-3-yl)-1H-indazol-6-yl)prop-2-yn-1-yl)-5-(8-(7-isopropyl-1,3-dimethyl-2-oxo-2,3-dihydro-1H-benzo[d]imidazol-5-yl)isoquinolin-3-yl)picolinamide] displayed a maximal degradation (Dmax) of 60 to 79% and a DC50 of 1 to 9.9 nM.

`CN1CCN(c2ccc3c(c2)n(C)c(=O)n3C)c2cnc(-c3ccc(C(=O)NCC#Cc4cc5c(C6CCC(=O)NC6=O)nccc5o4)nc3)nc21` (stereo not drawn) [Example A245, 5-(5-(1,3-dimethyl-2-oxo-2,3-dihydro-1H-benzo[d]imidazol-5-yl)-8-methyl-5,6,7,8-tetrahydropteridin-2-yl)-N-(3-(4-(2,6-dioxopiperidin-3-yl)furo[3,2-c]pyridin-2-yl)prop-2-yn-1-yl) picolinamide] had a Dmax greater than 80% and a DC50 of less than 1 nM.

Turning to `CC(C)c1cc(-c2cccc3cc(-c4ccc(C(=O)NCC#Cc5cc6c(C7CCC(=O)NC7=O)coc6cc5C#N)nc4)ncc23)cc2c1n(C)c(=O)n2C` (stereo not drawn) [Example A240, N-(3-(6-cyano-3-(2,6-dioxopiperidin-3-yl)benzofuran-5-yl)prop-2-yn-1-yl)-5-(8-(7-isopropyl-1,3-dimethyl-2-oxo-2,3-dihydro-1H-benzo [d]imidazol-5-yl)isoquinolin-3-yl)picolinamide], the Dmax was in the range of 40 to 59% and the DC50 fell in the range of 10 to 99 nM.

As for `Cc1cc(N2CCCc3nc(-c4ccc(C(=O)NCC#Cc5cc6c(C7CCC(=O)NC7=O)cccc6o5)nc4)ncc32)cc2c1n(C)c(=O)n2C` (stereo not drawn) [Example A188, N-(3-(4-(2,6-dioxo-piperidin-3-yl)benzofuran-2-yl)prop-2-yn-1-yl)-5-(5-(1,3,7-trimethyl-2-oxo-2,3-dihydro-1H-benzo[d]imidazol-5-yl)-5,6,7,8-tetrahydropyrido[3,2-d]pyrimidin-2-yl)picolinamide], the Dmax is greater than 80% and the DC50 is less than 1 nM.

`CC(C)c1cc(-c2cccc3cc(-c4ccc(C(=O)NCC#Cc5cnc6cnn(C7CCC(=O)NC7=O)c6c5)nc4)ncc23)cc2c1n(C)c(=O)n2C` (stereo not drawn) [Example A20, N-(3-(1-(2,6-Dioxopiperidin-3-yl)-1H-pyrazolo[4,3-b]pyridin-6-yl)prop-2-yn-1-yl)-5-(8-(7-isopropyl-1,3-dimethyl-2-oxo-2,3-dihydro-1H-benzo[d]imidazol-5-yl)isoquinolin-3-yl)picolinamide] displayed a Dmax of 60 to 79% and a 50% degradation concentration (DC50) of 1 to 9.9 nM.

`Cc1cc(-c2cccc3cc(-c4ccc(C(=O)NCC#Cc5cc6c(C7CCC(=O)NC7=O)cccc6o5)nc4)ncc23)cc2c1n(C)c(=O)n2C` (stereo not drawn) [Example A183, N-(3-(4-(2,6-dioxo-piperidin-3-yl)benzofuran-2-yl)prop-2-yn-1-yl)-5-(8-(1,3,7-trimethyl-2-oxo-2,3-dihydro-1H-benzo[d]imidazol-5-yl)isoquinolin-3-yl)picolinamide] showed a Dmax greater than 80% and a half-maximal degradation concentration (DC50) of less than 1 nM.

Regarding `CN1C(=O)C(C)(C)c2cc(-c3cccc4cc(-c5ccc(C(=O)NCC#Cc6ccc7occ(C8CCC(=O)NC8=O)c7c6)nc5)ncc34)ccc21` (stereo not drawn) [Example A130, N-(3-(3-(2,6-dioxo-piperidin-3-yl)benzo-furan-5-yl)prop-2-yn-1-yl)-5-(8-(1,3,3-trimethyl-2-oxoindolin-5-yl)isoquinolin-3-yl)picolinamide], the Dmax lay in the range of 20 to 39% and the DC50 lay in the range of 10 to 99 nM.

By Dmax is commonly meant the greatest extent of degradation seen. What is called DC50 is the concentration giving 50% degradation. A higher DC50 goes with degradation only at high concentration.
